Species on record: Rattus norvegicus
Assay: DrugMatrix - Regimen: Daily Repeat
Format: toxicity, organism-based, Sprague-Dawley
Design: regimen Daily Repeat, gender Male, age 6-8 weeks
Conditions: in vivo, po, route oral GAVAGE, vehicle .5 % CMC; for ABSOLUTE BASOPHIL / ABSOLUTE EOSINOPHIL / ABSOLUTE LYMPHOCYTE / ABSOLUTE MONOCYTE / ABSOLUTE SEGMENTED NEUTROPHIL / BASOPHIL / EOSINOPHIL / ERYTHROCYTE COUNT / HEMATOCRIT / HEMOGLOBIN / LEUKOCYTE COUNT / LYMPHOCYTE / MEAN CORPUSCULAR HEMOGLOBIN / MEAN CORPUSCULAR HEMOGLOBIN CONCENTRATION / MEAN CORPUSCULAR VOLUME / MONOCYTE / NEUTROPHIL / NUCLEATED RED BLOOD CELLS / PLATELET COUNT: tissue Blood; for ALANINE AMINOTRANSFERASE / ALBUMIN / ALKALINE PHOSPHATASE / ASPARTATE AMINOTRANSFERASE / BLOOD UREA NITROGEN / CARBON DIOXIDE / CHLORIDE / CHOLESTEROL / CREATINE PHOSPHOKINASE / CREATININE / GLUCOSE / LACTATE DEHYDROGENASE / LIPASE / PHOSPHORUS / POTASSIUM / SODIUM / TOTAL BILIRUBIN / TOTAL PROTEIN / URIC ACID: tissue Plasma
[1] = 200 mg/kg, 120 h, dose level Low, time 5 day
[2] = 2500 mg/kg, 72 h, dose level High, time 3 day
[3] = 2500 mg/kg, 120 h, dose level High, time 5 day

SMILES: Cc1cnc(C(=O)NCCc2ccc(S(=O)(=O)NC(=O)NC3CCCCC3)cc2)cn1 [GLIPIZIDE]
- ABSOLUTE BASOPHIL [1]: 0 CELLS/uL
- ABSOLUTE EOSINOPHIL [1]: 50.67 CELLS/uL
- ABSOLUTE LYMPHOCYTE [1]: 13488 CELLS/uL
- ABSOLUTE MONOCYTE [1]: 195 CELLS/uL
- ABSOLUTE SEGMENTED NEUTROPHIL [1]: 633 CELLS/uL
- BASOPHIL [1]: 0%
- EOSINOPHIL [1]: 0.33%
- ERYTHROCYTE COUNT [1]: 5.57 x10E6/uL
- HEMATOCRIT [1]: 34.23%
- HEMOGLOBIN [1]: 13.7 G/DL
- LEUKOCYTE COUNT [1]: 14.37 x10E3/uL
- LYMPHOCYTE [1]: 94%
- MEAN CORPUSCULAR HEMOGLOBIN [1]: 24.63 pg
- MEAN CORPUSCULAR HEMOGLOBIN CONCENTRATION [1]: 40 G/DL
- MEAN CORPUSCULAR VOLUME [1]: 61.53 fL
- MONOCYTE [1]: 1.33%
- NEUTROPHIL [1]: 4.33%
- NUCLEATED RED BLOOD CELLS [1]: 0 /100WBC
- PLATELET COUNT [1]: 1282.33 x10E3/uL
- ALANINE AMINOTRANSFERASE [1]: 62.33 u/L
- ALBUMIN [1]: 4.3 G/DL
- ALKALINE PHOSPHATASE [1]: 343.67 u/L
- ASPARTATE AMINOTRANSFERASE [1]: 82.67 u/L
- BLOOD UREA NITROGEN [1]: 14 mg/dL
- CARBON DIOXIDE [1]: 32.33 mmol/L
- CHLORIDE [1]: 103 MEQ/L
- CHOLESTEROL [1]: 74.67 mg/dL
- CREATINE PHOSPHOKINASE [1]: 208.33 u/L
- CREATININE [1]: 0.13 mg/dL
- GLUCOSE [1]: 118.67 mg/dL
- LACTATE DEHYDROGENASE [1]: 116.33 u/L
- LIPASE [1]: 10.67 u/L
- PHOSPHORUS [1]: 10.77 mg/dL
- POTASSIUM [1]: 6.11 MEQ/L
- SODIUM [1]: 144.93 MEQ/L
- TOTAL BILIRUBIN [1]: 0.2 mg/dL
- TOTAL PROTEIN [1]: 6.03 G/DL
- URIC ACID [1]: 0.9 mg/dL
- ABSOLUTE BASOPHIL [2]: 0 CELLS/uL
- ABSOLUTE EOSINOPHIL [2]: 83.33 CELLS/uL
- ABSOLUTE LYMPHOCYTE [2]: 11306.67 CELLS/uL
- ABSOLUTE MONOCYTE [2]: 81.67 CELLS/uL
- ABSOLUTE SEGMENTED NEUTROPHIL [2]: 861.67 CELLS/uL
- BASOPHIL [2]: 0%
- EOSINOPHIL [2]: 0.67%
- ERYTHROCYTE COUNT [2]: 5.69 x10E6/uL
- HEMATOCRIT [2]: 36.9%
- HEMOGLOBIN [2]: 14.23 G/DL
- LEUKOCYTE COUNT [2]: 12.33 x10E3/uL
- LYMPHOCYTE [2]: 91.67%
- MEAN CORPUSCULAR HEMOGLOBIN [2]: 25.07 pg
- MEAN CORPUSCULAR HEMOGLOBIN CONCENTRATION [2]: 38.57 G/DL
- MEAN CORPUSCULAR VOLUME [2]: 64.9 fL
- MONOCYTE [2]: 0.67%
- NEUTROPHIL [2]: 7%
- NUCLEATED RED BLOOD CELLS [2]: 0 /100WBC
- PLATELET COUNT [2]: 1346.67 x10E3/uL
- ALANINE AMINOTRANSFERASE [2]: 54 u/L
- ALBUMIN [2]: 4.17 G/DL
- ALKALINE PHOSPHATASE [2]: 318.33 u/L
- ASPARTATE AMINOTRANSFERASE [2]: 75.33 u/L
- BLOOD UREA NITROGEN [2]: 16 mg/dL
- CARBON DIOXIDE [2]: 31 mmol/L
- CHLORIDE [2]: 102.33 MEQ/L
- CHOLESTEROL [2]: 72.33 mg/dL
- CREATINE PHOSPHOKINASE [2]: 179.33 u/L
- CREATININE [2]: 0.15 mg/dL
- GLUCOSE [2]: 148.67 mg/dL
- LACTATE DEHYDROGENASE [2]: 104.33 u/L
- LIPASE [2]: 10 u/L
- PHOSPHORUS [2]: 11.9 mg/dL
- POTASSIUM [2]: 6.37 MEQ/L
- SODIUM [2]: 143.83 MEQ/L
- TOTAL BILIRUBIN [2]: 0.17 mg/dL
- TOTAL PROTEIN [2]: 5.63 G/DL
- URIC ACID [2]: 1.7 mg/dL
- ABSOLUTE BASOPHIL [3]: 0 CELLS/uL
- ABSOLUTE EOSINOPHIL [3]: 102.33 CELLS/uL
- ABSOLUTE LYMPHOCYTE [3]: 11867.33 CELLS/uL
- ABSOLUTE MONOCYTE [3]: 0 CELLS/uL
- ABSOLUTE SEGMENTED NEUTROPHIL [3]: 1397 CELLS/uL
- BASOPHIL [3]: 0%
- EOSINOPHIL [3]: 0.67%
- ERYTHROCYTE COUNT [3]: 5.55 x10E6/uL
- HEMATOCRIT [3]: 34.63%
- HEMOGLOBIN [3]: 14.1 G/DL
- LEUKOCYTE COUNT [3]: 13.37 x10E3/uL
- LYMPHOCYTE [3]: 88%
- MEAN CORPUSCULAR HEMOGLOBIN [3]: 25.4 pg
- MEAN CORPUSCULAR HEMOGLOBIN CONCENTRATION [3]: 40.73 G/DL
- MEAN CORPUSCULAR VOLUME [3]: 62.37 fL
- MONOCYTE [3]: 0%
- NEUTROPHIL [3]: 11.33%
- NUCLEATED RED BLOOD CELLS [3]: 0 /100WBC
- PLATELET COUNT [3]: 1273.67 x10E3/uL
- ALANINE AMINOTRANSFERASE [3]: 58 u/L
- ALBUMIN [3]: 4.37 G/DL
- ALKALINE PHOSPHATASE [3]: 329 u/L
- ASPARTATE AMINOTRANSFERASE [3]: 83.33 u/L
- BLOOD UREA NITROGEN [3]: 15 mg/dL
- CARBON DIOXIDE [3]: 30.67 mmol/L
- CHLORIDE [3]: 100.67 MEQ/L
- CHOLESTEROL [3]: 71 mg/dL
- CREATINE PHOSPHOKINASE [3]: 224.33 u/L
- CREATININE [3]: 0.19 mg/dL
- GLUCOSE [3]: 140.33 mg/dL
- LACTATE DEHYDROGENASE [3]: 117 u/L
- LIPASE [3]: 7.67 u/L
- PHOSPHORUS [3]: 11.13 mg/dL
- POTASSIUM [3]: 5.21 MEQ/L
- SODIUM [3]: 146.2 MEQ/L
- TOTAL BILIRUBIN [3]: 0.2 mg/dL
- TOTAL PROTEIN [3]: 6.17 G/DL
- URIC ACID [3]: 0.8 mg/dL

Reference: ChEMBL document CHEMBL3885881, “DrugMatrix”
